Holding throughout (type): cell-based, mouse
For one assay, the system named is ESC-derived cultures. Put plainly: Otic induction of ESC-derived embryoid body cultures (Pax2 immunostaining). To be noted: ESC derivatives; not treated with any of the three initial factors, but treated with bFGF. On the procedure: (§1) Embryoid bodies were transferred into fibronectin-coated 4-well dishes (Greiner) at 30 embryoid bodies per well and cultured for three days in DMEM/F12 (Invitrogen, mixed 1:1) supplemented with N2 and B27 (Invitrogen), bFGF (R&D Systems, 25 ng/ml), heparin sulfate (Sigma, 50 ng/ml), and ampicillin ([…]). FGF3 (recombinant human FGF-3, R&D Systems) and FGF10 (recombinant human FGF-10, R&D Systems) were used at 25 ng/ml in parallel experiments. The FGF receptor antagonist SU5402 (a gift from Pfizer R&D) was used at […]. After FGF-treatment, the cells were detached using 0.05% trypsin/EDTA (Sigma) in PBS, mildly triturated, and passed 1:10 into individual wells of 4-well dishes coated with either fibronectin, gelatin, MEFs, or mitotically inactivated embryonic (E18) chicken utricle stromal cells. Utricle stromal cells were prepared from 20 utricles whose sensory epithelia were removed after 40 min treatment with 0.5 mg/ml thermolysin (Sigma) in DMEM/F12 at 37 C. After addition of 5% serum, the sensory epithelia were removed and used in unrelated experiments. […]
(§2) For immunocytochemistry, the cells were fixed with 4% paraformaldehyde in PBS for 15 min at room temperature. […] Images were acquired with a Zeiss Axioimager/LSM 5 Exciter fluorescence and confocal microscope. […]

A further assay has as its system iPSC-derived cultures. Put plainly: Otic induction of iPSC-derived embryoid body cultures (Pax2 immunostaining). To be noted: iPSC derivatives; not treated with any of the three initial factors, but treated with bFGF. As for the experimental part: as §1, §2
The subject of assay [1] is ESC-derived hair cell-like cell. Put plainly: Mechanically induced currents of ESC-derived hair cell-like cells (patch clamp). To be noted: local application of 1 mM DHSM to hair bundles, then mechanical stimulation. On the procedure: (§3) nGFP-expressing hair cell-like cells were identified by fluorescence microscopy, and nearby hair bundle-like protrusions were imaged with a […] objective with brightfield optics. Recordings were conducted with an Axoclamp 200a (Axon Instruments) amplifier, interfaced with a DIGIDATA® 1332 board (Axon), and jClamp Software (Scisoft). Mechanical stimulation was done with a stiff glass probe attached to a piezo stack.
(§4) More specifically, cultured cells were placed onto the stage of an OLYMPUS® BX 51 fixed stage upright microscope and imaged using a 100× dipping objective using brightfield optics. Images were collected using a C2400 NARISHIGE® analog camera coupled via a framegrabber to a PC computer using Image J software. Soda glass electrodes, coated with ski wax (MR. ZOG'S SEX WAX®) to limit stray capacitance, of resistances 3-5MΩ, were used to record from both ES and iPS cells. The culture medium was replaced during electrophysiological recordings with a solution containing (in mM) 140 NaCl, 5 KCl, 1 MgCl2, 2.5 CaCl, 10 HEPES, 6 glucose, 2 pyruvate, 2 ascorbate, 2 creatine. […] Data was analyzed with ORIGIN® software (Microcal). […]
(§5) Adaptation is a complex process in which hair bundle dynamic range is enhanced and sensitivity maintained over large displacements (Eatock, 2000). […] The fast time constant measured was 0.5±0.4 ms (n=5) and the slow was 11±5 ms (n=5). […]
On the technique in general: The patch-clamp technique gives a direct electrical read-out from membranes.

Assay [2] has as its system iPSC-derived hair cell-like cell. Put plainly: Mechanically induced currents of iPSC-derived hair cell-like cells (patch clamp). As to conditions: local application of 1 mM DHSM to hair bundles, then mechanical stimulation. As for the experimental part:
as §3, §4, §5

In assay [3] the test system is ESC-derived embryoid bodies. Put plainly: Suppression of meso- and endodermal differentiation in ESC-derived embryoid bodies (Brachyury/GATA6 immunostaining). As to conditions: single factor. As for the experimental part:
(§6) ES cell line C9 and iPS cell line #25-5 were used for all guidance experiments. MEF feeder cells were removed either by weaning the cells off for several passages or by pre-culturing the cells for 40 min allowing MEFs to attach. For embryoid body formation, the cells were dissociated with 0.25% trypsin-EDTA (Invitrogen) and cultured in poly(2-hydroxyethyl methacrylate)-coated 6-well cell suspension plates (Greiner). Coating was done by covering the plates with 1 ml of 2% poly(2 hydroxyethyl methacrylate) (Sigma) solution in 1:1 ethanol/acetone. After 2 min, the solution was completely aspirated and the plates were dried with open lid for 20 min in a cell culture cabinet. After three washes with PBS, the ES and iPS cells were added at a density of 50 cells/ml and cultured for 5 days in DMEM (Invitrogen) with 15% FBS, 0.1 mM MEM non-essential amino acids, […] 2-mercaptoethanol, 2 mM L-glutamine and […] ampicillin. For otic induction experiments, the following growth factors or reagents were added to the medium: recombinant mouse Dickkopf related protein 1 (Dkk-1) at 100 ng/ml (R&D Systems), SIS3 at […] (Sigma), and IGF1 at 10 ng/ml (Sigma). […]
as §2

Assay [4] deals with iPSC-derived embryoid bodies. Put plainly: Suppression of meso- and endodermal differentiation in iPSC-derived embryoid bodies (Brachyury/GATA6 immunostaining). To be noted: single factor. As for the experimental part:
as §6, §2

Entries after “also recorded” stand apart in the source; their conditions may differ.

Turning to “bFGF: fibroblast growth factor FGF2 (bFGF), general otic inducer”, the Pax2-expressing cells in the assay on ESC-derived cultures was determined as 0.05±0.04%; in the assay with iPSC-derived cultures it was 0.1±0.09%.

Take `CN[C@@H]1[C@H](O[C@H]2[C@H](O[C@H]3[C@H](O)[C@@H](O)[C@H](NC(=N)N)[C@@H](O)[C@@H]3NC(=N)N)O[C@@H](C)[C@]2(O)CO)O[C@@H](CO)[C@H](O)[C@H]1O` [DHSM, dihydrostreptomycin]: the “mechanically induced (evoked) currents” value in assay [1] and in assay [2] was “antagonized reversibly; also recorded: reversibly blocked” throughout.

B1: Dkk1: recombinant mouse Dickkopf related protein 1, Wnt inhibitor (protein, UniProt O54908 32-272, looked up)
Dickkopf-related protein 1: TLNSVLINSNAIKNLPPPLGGAGGQPGSAVSVAPGVLYEGGNKYQTLDNYQPYPCAEDEECGSDEYCSSPSRGAAGVGGVQICLACRKRRKRCMRHAMCCPGNYCKNGICMPSDHSHFPRGEIEESIIENLGNDHNAAAGDGYPRRTTLTSKIYHTKGQEGSVCLRSSDCAAGLCCARHFWSKICKPVLKEGQVCTKHKRKGSHGLEIFQRCYCGEGLACRIQKDHHQASNSSRLHTCQRH
On to B1, for which the “number of Brachyury-positive cells, factor alone” value in assay [3] is reported as “significantly reduced”. The “Brachyury-expressing cell population, factor alone” value in assay [4] was “significantly reduce”.

For the origin of these results see patent US9157064B2, “Methods for generating inner ear cells in vitro” (The Board of Trustees of the Leland Stanford Junior …, priority 2011, dated 2015).
